According to article PMC9238271, “The quorum sensing peptide EntF* promotes colorectal cancer metastasis in mice: a new factor in the host-microbiome interaction” (BMC Biology, 2022):

Experiments:
[1] = In vitro metabolization of EntF: formation of EntF* in colon tissue homogenate; format: in vitro ADME, C57BL/6 female mice
Experimental: (§1) Krebs-Henseleit (KH) buffer (Sigma-Aldrich, Belgium) was prepared by dissolving the powdered medium in 900 mL water while stirring. Once the powder was completely dissolved, 0.3790 g CaCl2•2H2O and 2.098 g NaHCO3 were added to the solution. NaOH or HCl was used to adjust the pH to 7.4. The solution was brought to final volume (1000 mL) with ultrapure water.
For the preparation of colon tissue homogenates for EntF in vitro metabolization study, colons were collected from two untreated C57BL/6 female mice after cervical dislocation. After cleaning and rinsing the organs with ice-cold KH buffer, colons were cut into small pieces and transferred into 15 mL tubes containing 5 mL ice-cold KH buffer. Colon tissues were homogenized for 1 min. Larger particles were allowed to sediment for about 30 min at 5 °C, and then approximately 2 mL of the middle layer of each tube was transferred into a 2 mL Eppendorf tube and stored at − 35 °C. Before use, the homogenate was diluted to a final protein concentration of 0.6 mg/mL.
(§2) To avoid the absorption of EntF* onto plasticware and glassware, all tubes and containers were coated with a BSA-based anti-adsorption solution before use.
(§3) Five hundred microliters of tissue homogenate were mixed with 400 μL of pre-warmed KH buffer. Then, 100 μL of KH buffer (blank) or 1 mg/mL EntF peptide solution (test) were added to the diluted homogenate and incubated at 37 °C. […] After centrifugation at 16,000g for 30 min at 5 °C, supernatants were analyzed by LC1-MS1 for EntF* quantification.
(§4) EntF* was detected and quantified on a Waters Acquity® UPLC H-class system, connected to a Waters Xevo™ TQ-S triple quadrupole mass spectrometer with electrospray ionization (operated in positive ionization mode). Autosampler tray and column oven were kept at 10 ± 5 °C and 60 ± 5 °C, respectively. Chromatographic separation was achieved on a Waters Acquity® UPLC BEH Peptide C18 column (300 Å, 1.7 μm, 2.1 mm × 100 mm). The mobile phases consisted of 93/2/5 water/acetonitrile/DMSO (V/V/V) containing 0.1% formic acid (mobile phase A) and 2/93/5 water/acetonitrile/DMSO (V/V/V) containing 0.1% formic acid (mobile phase B), and the flow rate was set to 0.5 mL/min. A 10-μL aliquot from each sample was injected. The gradient program started with 80% of mobile phase A for 1 min, followed by a linear gradient to 40% of mobile phase A for 3.5 min. Gradient was then changed to 14.2% mobile phase A at 5 min, followed by a 1 min equilibration, before starting conditions were applied. EntF* retention time was between 4.25 and 4.45 min.
(§5) An optimized capillary voltage of 3.00 kV, a cone voltage of 20.00 V, and a source offset of 50.0 V were used. Acquisition was done in the MRM mode. The selected precursor ion for EntF* was m/z 865.7 with two selected product ions at m/z 202.08 (36 eV, b2 fragment) as quantifier and m/z 315.17 (31 eV, b3 fragment) as qualifier.

[2] = In vitro metabolization of EntF: formation of EntF* in feces homogenate; format: in vitro ADME, C57BL/6 female mice; details: for EntF* Conc / EntF* without metabolisation, Conc / EntF*/EntF %: Feces, initial concentration EntF 31.82 µM
Experimental: as §1
Feces homogenates were prepared, after collecting fecal material from two untreated C57BL/6 female mice after cervical dislocation, by using the same procedures employed for colon tissue homogenate preparation. Before use, the homogenate was diluted to a final protein concentration of 0.6 mg/mL.
as §2, §3, §4, §5

[3] = Colon, Time 0, initial concentration EntF 31.82 µM
[4] = Colon, Time 1, initial concentration EntF 31.82 µM
[5] = Colon, Time 5, initial concentration EntF 31.82 µM
[6] = Colon, Time 10, initial concentration EntF 31.82 µM
[7] = Colon, Time 30, initial concentration EntF 31.82 µM
[8] = Colon, Time 60, initial concentration EntF 31.82 µM
[9] = Colon, Time 120, initial concentration EntF 31.82 µM
[10] = Colon, Time 180, initial concentration EntF 31.82 µM

Compound: CC(C)C[C@@H]1NC(=O)[C@H](CO)NC(=O)[C@H](Cc2ccccc2)NC(=O)[C@H](C(C)C)NC(=O)[C@@H](NC(=O)[C@H](CCC(=O)O)NC(=O)[C@@H](NC(=O)[C@H](CC(C)C)NC(=O)[C@H](CC(N)=O)NC(=O)[C@@H](N)CO)C(C)C)CSSC[C@@H](C(=O)N[C@@H](CC(N)=O)C(=O)O)NC(=O)[C@H](CCCCN)NC(=O)[C@H](CCCCN)NC(=O)[C@H](Cc2ccccc2)NC1=O (single isomer, unassigned) [EntF*]
- Stability of EntF* in Colon tissue ([1]; Colon tissue): EntF* is stable in Colon tissue
- EntF* Conc [1, 3]: 0.00 µM
- EntF* without metabolisation, Conc [1, 3]: 0.00 µM
- EntF*/EntF % [1, 3]: 0.00%
- EntF* Conc [1, 4]: 0.0286 µM
- EntF*/EntF % [1, 4]: 0.09%
- EntF* Conc [1, 5]: 0.20 µM
- EntF*/EntF % [1, 5]: 0.62%
- EntF* Conc [1, 6]: 0.50 µM
- EntF*/EntF % [1, 6]: 1.56%
- EntF* Conc [1, 7]: 0.94 µM
- EntF*/EntF % [1, 7]: 2.94%
- EntF* Conc [1, 8]: 2.03 µM
- EntF*/EntF % [1, 8]: 6.39%
- EntF* Conc [1, 9]: 3.15 µM
- EntF*/EntF % [1, 9]: 9.89%
- EntF* Conc [1, 10]: 5.17 µM
- EntF*/EntF % [1, 10]: 16.25%
- formation rate of EntF* (from EntF) in colonic tissues ([1]; mouse colon tissue homogenate (0.6 mg/mL protein) 500 μL + 400 μL Krebs-Henseleit buffer pH 7.4 + 100 μL 1 mg/mL EntF, 37 °C, aliquots 0-180 min, LC1-MS1, mean ± SEM, n = 7): 0.11 ± 0.01 % min^−1
- Formation rate, Colon tissue, Average ([1]; mouse colon tissue homogenate, Krebs-Henseleit buffer pH 7.4, 37 °C, LC1-MS1, average of X1-X7): 0.11 %*min-1
- Formation rate, Colon tissue ([1]; mouse colon tissue homogenate, Krebs-Henseleit buffer pH 7.4, 37 °C, LC1-MS1, replicate X1): 0.0898 %*min-1
- Formation rate, Colon tissue ([1]; mouse colon tissue homogenate, Krebs-Henseleit buffer pH 7.4, 37 °C, LC1-MS1, replicate X2): 0.1249 %*min-1
- Formation rate, Colon tissue ([1]; mouse colon tissue homogenate, Krebs-Henseleit buffer pH 7.4, 37 °C, LC1-MS1, replicate X3): 0.1563 %*min-1
- Formation rate, Colon tissue ([1]; mouse colon tissue homogenate, Krebs-Henseleit buffer pH 7.4, 37 °C, LC1-MS1, replicate X4): 0.0981 %*min-1
- Formation rate, Colon tissue ([1]; mouse colon tissue homogenate, Krebs-Henseleit buffer pH 7.4, 37 °C, LC1-MS1, replicate X5): 0.1065 %*min-1
- Formation rate, Colon tissue ([1]; mouse colon tissue homogenate, Krebs-Henseleit buffer pH 7.4, 37 °C, LC1-MS1, replicate X6): 0.0824 %*min-1
- Formation rate, Colon tissue ([1]; mouse colon tissue homogenate, Krebs-Henseleit buffer pH 7.4, 37 °C, LC1-MS1, replicate X7): 0.0903 %*min-1
- EntF* Conc ([2]; Time 0): 0.00 µM
- EntF* without metabolisation, Conc ([2]; Time 0): 0.0 µM
- EntF*/EntF % ([2]; Time 0): 0.0%
- EntF* Conc ([2]; Time 1): 0.50 µM
- EntF* without metabolisation, Conc ([2]; Time 1): 0.529 µM
- EntF*/EntF % ([2]; Time 1): 1.7%
- EntF* Conc ([2]; Time 5): 3.00 µM
- EntF* without metabolisation, Conc ([2]; Time 5): 3.9 µM
- EntF*/EntF % ([2]; Time 5): 12.4%
- EntF* Conc ([2]; Time 10): 2.69 µM
- EntF* without metabolisation, Conc ([2]; Time 10): 4.6 µM
- EntF*/EntF % ([2]; Time 10): 14.5%
- EntF* Conc ([2]; Time 30): 2.33 µM
- EntF* without metabolisation, Conc ([2]; Time 30): 11.8 µM
- EntF*/EntF % ([2]; Time 30): 37.1%
- Formation rate, Faeces, Average ([2]; mouse feces homogenate, Krebs-Henseleit buffer pH 7.4, 37 °C, LC1-MS1, average of X1-X4): 1.71 %*min-1
- Formation rate, Faeces ([2]; mouse feces homogenate, Krebs-Henseleit buffer pH 7.4, 37 °C, LC1-MS1, replicate X1): 1.6635 %*min-1
- Formation rate, Faeces ([2]; mouse feces homogenate, Krebs-Henseleit buffer pH 7.4, 37 °C, LC1-MS1, replicate X2): 2.4748 %*min-1
- Formation rate, Faeces ([2]; mouse feces homogenate, Krebs-Henseleit buffer pH 7.4, 37 °C, LC1-MS1, replicate X3): 1.4512 %*min-1
- Formation rate, Faeces ([2]; mouse feces homogenate, Krebs-Henseleit buffer pH 7.4, 37 °C, LC1-MS1, replicate X4): 1.2367 %*min-1
